Data on 28 molecules can be found in article PMC6401531 (ChemistryOpen, 2019).

The target in one assay is hH2R (Homo sapiens, UniProt P25021+P63092). Put plainly: [35S]GTPγS binding assay, Sf9 membranes. It counts as biochemical. For orientation: GTPγS resists hydrolysis and so accumulates on activated G proteins.
A further assay deals with hH3R (Homo sapiens, UniProt Q9Y5N1). In words: [35S]GTPγS binding assay, Sf9 membranes. The class given is biochemical.
In a further assay the target is hH4R (Homo sapiens, UniProt Q9H3N8). In words: [35S]GTPγS binding assay, Sf9 membranes. It counts as biochemical.
hH4R, sequence (Q9H3N8 whole entry): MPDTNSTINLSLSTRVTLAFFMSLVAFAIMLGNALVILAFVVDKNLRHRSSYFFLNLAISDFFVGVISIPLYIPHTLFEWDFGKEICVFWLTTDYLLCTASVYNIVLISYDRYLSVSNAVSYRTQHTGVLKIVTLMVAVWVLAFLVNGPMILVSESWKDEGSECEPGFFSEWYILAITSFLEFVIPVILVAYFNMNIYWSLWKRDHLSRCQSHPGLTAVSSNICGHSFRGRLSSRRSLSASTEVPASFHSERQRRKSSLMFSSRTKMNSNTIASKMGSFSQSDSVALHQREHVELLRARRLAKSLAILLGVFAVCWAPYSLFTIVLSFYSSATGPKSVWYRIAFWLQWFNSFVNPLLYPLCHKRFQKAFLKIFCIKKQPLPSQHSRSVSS
Assay [1] concerns the target T1, gpH2R (atrium) (Cavia porcellus, UniProt P47747). Put plainly: Organ bath study on isolated guinea pig right atrium. The note with it: for Emax gpH2R: maximal response relative to maximal increase in heart rate induced by histamine (Emax=1.00).
For a further assay, the target named is gpH1R (ileum) (Cavia porcellus, UniProt P31389). In words: Organ bath study on isolated guinea pig ileum.
gpH1R (ileum), sequence (P31389 whole entry): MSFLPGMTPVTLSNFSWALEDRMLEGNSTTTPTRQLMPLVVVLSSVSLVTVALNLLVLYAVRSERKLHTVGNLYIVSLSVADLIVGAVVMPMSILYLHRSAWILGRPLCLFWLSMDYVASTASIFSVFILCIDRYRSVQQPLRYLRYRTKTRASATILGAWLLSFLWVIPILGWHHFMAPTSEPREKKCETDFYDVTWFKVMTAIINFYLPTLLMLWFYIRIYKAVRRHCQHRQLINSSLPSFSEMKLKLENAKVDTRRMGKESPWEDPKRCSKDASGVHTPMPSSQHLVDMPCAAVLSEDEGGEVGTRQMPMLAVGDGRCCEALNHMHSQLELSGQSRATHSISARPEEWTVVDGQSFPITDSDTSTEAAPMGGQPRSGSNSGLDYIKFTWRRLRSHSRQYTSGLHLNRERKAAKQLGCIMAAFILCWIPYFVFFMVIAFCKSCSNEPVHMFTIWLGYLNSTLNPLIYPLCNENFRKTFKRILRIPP
Assay [2] addresses T1, gpH2R (atrium). The note with it: guinea-pig right atrium, cited from earlier work.
The mark [3] stands for this setting: [35S]GTPγS binding, maximal response relative to histamine (Emax=1.00).

The structures appear in SMILES notation. Where “and” joins values, the source holds several entries; their conditions need not be identical. Equal entries are not always repeated. Where two headings read alike, the source gives them in different places. Bounds are passed on as bounds.

hH3R, sequence (Q9Y5N1 whole entry): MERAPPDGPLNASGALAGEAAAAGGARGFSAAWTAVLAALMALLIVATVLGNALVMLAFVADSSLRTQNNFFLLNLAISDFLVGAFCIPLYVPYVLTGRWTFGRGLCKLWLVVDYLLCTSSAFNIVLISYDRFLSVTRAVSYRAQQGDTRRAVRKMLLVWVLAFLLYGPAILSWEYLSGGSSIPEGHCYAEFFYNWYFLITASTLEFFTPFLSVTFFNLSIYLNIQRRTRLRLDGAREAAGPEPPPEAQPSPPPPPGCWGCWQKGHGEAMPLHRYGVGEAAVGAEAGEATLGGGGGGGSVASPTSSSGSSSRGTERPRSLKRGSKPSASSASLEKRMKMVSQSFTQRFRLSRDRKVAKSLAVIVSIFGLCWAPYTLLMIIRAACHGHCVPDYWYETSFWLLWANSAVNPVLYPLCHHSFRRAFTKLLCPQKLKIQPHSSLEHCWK
T1 sequence (P47747 whole entry): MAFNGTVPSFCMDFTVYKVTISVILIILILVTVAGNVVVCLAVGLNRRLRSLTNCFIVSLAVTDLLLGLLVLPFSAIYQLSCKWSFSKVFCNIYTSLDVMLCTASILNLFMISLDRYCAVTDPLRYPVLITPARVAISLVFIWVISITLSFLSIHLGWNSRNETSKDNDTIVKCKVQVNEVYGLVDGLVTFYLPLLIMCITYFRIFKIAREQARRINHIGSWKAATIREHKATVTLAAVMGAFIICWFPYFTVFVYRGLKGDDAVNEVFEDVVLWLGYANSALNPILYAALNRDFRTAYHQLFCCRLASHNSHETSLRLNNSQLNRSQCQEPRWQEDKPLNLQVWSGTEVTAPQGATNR

Consider `NCCc1c[nH]cn1` [compound 1, histamine, reference compound], for which the “Emax hH2R” value on hH2R (setting [3]) amounted to 1.00. The “Emax hH3R” value on hH3R (setting [3]) turned out to be 1.00. Moreover, the “Emax hH4R” value at hH4R (setting [3]) is listed as 1.00. For the same molecule, on gpH2R (atrium) [1], the “Emax gpH2R” value is 1.00.

As for `N=C(NCCCN)NCCCc1c[nH]cn1` [compound 115, 1‐(3‐Aminopropyl)‐3‐[3‐(1H‐imidazol‐4‐yl)propyl]guanidine], the Kb at gpH1R (ileum) is 16600 nM. Further, at gpH2R (atrium) [1], the EC50 was 4680 nM and the “Emax gpH2R” value is 0.88±0.05.

With `N=C(NCCCCN)NCCCc1c[nH]cn1` [compound 116], the Kb on gpH1R (ileum) is 3800 nM. Moreover, at gpH2R (atrium) [1], it took 7410 nM to reach a half-maximal effect (EC50) and the “Emax gpH2R” value is 0.68±0.02.

The molecule `N=C(NCCCCCCN)NCCCc1c[nH]cn1` [compound 117] gave a Kb at gpH1R (ileum) of 6310 nM. For the same molecule, on gpH2R (atrium) [1], the EC50 is 380 nM and the “Emax gpH2R” value came to 0.79±0.01.

Take `N=C(NCCCCCCCCN)NCCCc1c[nH]cn1` [compound 118]: the Kb at gpH1R (ileum) was 1290 nM. Besides, on gpH2R (atrium) [1], the EC50 is 309 nM and the “Emax gpH2R” value amounted to 0.75±0.10.

As to `N=C(NCCCCCCCCCCN)NCCCc1c[nH]cn1` [compound 119], the Kb at gpH1R (ileum) is 676 nM. On gpH2R (atrium) [1], the midpoint of the response, the EC50, lay at 389 nM and the “Emax gpH2R” value is reported as 0.78±0.01.

As for `N=C(NCCCCCCCCCCCCN)NCCCc1c[nH]cn1` [compound 120], the “Emax hH2R” value on hH2R is on record as 0.66±0.01. In addition, at hH3R, the “Emax hH3R” value is 0 and the Kb was determined as 191 nM. For the same molecule, at hH4R, the “Emax hH4R” value came out at 0 and the Kb is 372000 nM. In addition, the Kb on gpH1R (ileum) is 112 nM. At gpH2R (atrium) [1], the EC50 is 138 nM; the “Emax gpH2R” value was 1.00 and 1.00±0.06.

For the molecule `Cc1nc(N)sc1CCCNC(=N)NCCCCCCCCCCCCN` [compound 121], the “Emax hH2R” value at hH2R was 0.22 and 0.22±0.01. Moreover, at hH3R, the “Emax hH3R” value is listed as −0.69±0.03. In addition, on hH4R, the “Emax hH4R” value stood at 0 and the Kb stood at 178000 nM. Moreover, at gpH1R (ileum), the Kb worked out at 70.8 nM. Further, on gpH2R (atrium) [1], a half-maximal effect (EC50) was put at 324 nM and the “Emax gpH2R” value is given as 0.71±0.03.

`N=C(NCCCCCCCCCCCCN)NCCCc1cnc(N)s1` [compound 122] had a Kb on gpH1R (ileum) of 9.33 nM. In addition, at gpH2R (atrium) [1], the EC50 was 234 nM and the “Emax gpH2R” value came out at 0.90±0.05.

Molecule `N=C(N)NCCCCNC(=N)NCCCc1c[nH]cn1` [compound 123] gave a Kb at gpH1R (ileum) of 2630 nM. Also, on gpH2R (atrium) [1], the EC50 is 50.1 nM; the “Emax gpH2R” value is 1.03 and 1.03±0.03.

As for `N=C(N)NCCCCCCNC(=N)NCCCc1c[nH]cn1` [compound 124], the Kb on gpH1R (ileum) was 933 nM. On gpH2R (atrium) [1], the midpoint of the response, the EC50, lay at 21.4 nM and the “Emax gpH2R” value is reported as 0.94±0.02.

Molecule `N=C(N)NCCCCCCCCNC(=N)NCCCc1c[nH]cn1` [compound 125] had a Kb on gpH1R (ileum) of 1620 nM. Also, at gpH2R (atrium) [1], the midpoint of the response, the EC50, lay at 20.4 nM; the “Emax gpH2R” value was 0.83 and 0.83±0.07.

Consider `N=C(N)NCCCCCCCCCCNC(=N)NCCCc1c[nH]cn1` [compound 126], for which the Kb at gpH1R (ileum) was 251 nM. Besides, on gpH2R (atrium) [1], the EC50 was 27.5 nM and the “Emax gpH2R” value stood at 0.80±0.02.

Take `N=C(N)NCCCCCCCCCCCCNC(=N)NCCCc1c[nH]cn1` [compound 127]: the “Emax hH2R” value on hH2R was found to be 0.45±0.03. Besides, at hH3R, the “Emax hH3R” value was 0 and the Kb came out at 66.1 nM. Moreover, on hH4R, the “Emax hH4R” value was determined as 0 and the Kb was 417000 nM. The same molecule gave a Kb on gpH1R (ileum) of 60.3 nM. For the same molecule, on gpH2R (atrium) [1], the EC50 was 56.2 nM and the “Emax gpH2R” value came out at 0.77±0.07.

For `Cc1nc(N)sc1CCCNC(=N)NCCCCCCCCNC(=N)N` [compound 128], the Kb at gpH1R (ileum) was 214 nM. At gpH2R (atrium) [1], the EC50 was 135 nM and the “Emax gpH2R” value is listed as 0.72±0.02.

On gpH1R (ileum), `N=C(N)NCCCCCCCCNC(=N)NCCCc1cnc(N)s1` [compound 129] gave a Kb of 50.1 nM. Besides, at gpH2R (atrium) [1], the response was half-maximal at 38.9 nM (EC50) and the “Emax gpH2R” value came to 1.00±0.01.

For the molecule `Cc1nc(N)sc1CCCNC(=N)NCCCCCCCCCCCCNC(=N)N` [compound 130], at hH2R, the “Emax hH2R” value was 0.22 and 0.22±0.01. On hH3R, the “Emax hH3R” value is listed as −1.21±0.10. On gpH1R (ileum), this molecule had a Kb of 174 nM. Also, at gpH2R (atrium) [1], the EC50 is 95.5 nM and the “Emax gpH2R” value was determined as 0.90±0.04.

In turn, `N=C(N)NCCCCCCCCCCCCNC(=N)NCCCc1cnc(N)s1` [compound 131] showed a Kb at gpH1R (ileum) of 8.71 nM. For the same molecule, on gpH2R (atrium) [1], the EC50 is 117 nM and the “Emax gpH2R” value was determined as 0.85±0.05.

Molecule `N=C(NCCCNC(N)=O)NCCCc1c[nH]cn1` [compound 132] showed a Kb at gpH1R (ileum) of 9120 nM. For the same molecule, at gpH2R (atrium) [1], the concentration giving a half-maximal response (EC50) was 2450 nM and the “Emax gpH2R” value was 0.89±0.03.

`N=C(NCCCCNC(N)=O)NCCCc1c[nH]cn1` [compound 133] gave a Kb at gpH1R (ileum) of 6030 nM. On gpH2R (atrium) [1], the response was half-maximal at 288 nM (EC50) and the “Emax gpH2R” value was 1.03±0.03.

The molecule `N=C(NCCCCCCNC(N)=O)NCCCc1c[nH]cn1` [compound 134] showed a Kb on gpH1R (ileum) of 7410 nM. For the same molecule, on gpH2R (atrium) [1], a half-maximal response (EC50) required 676 nM and the “Emax gpH2R” value is listed as 0.96±0.03.

On gpH1R (ileum), `N=C(NCCCCCCCCNC(N)=O)NCCCc1c[nH]cn1` [compound 135] gave a Kb of 1410 nM. Also, at gpH2R (atrium) [1], the response was half-maximal at 182 nM (EC50) and the “Emax gpH2R” value worked out at 0.94±0.05.

On to `N=C(NCCCCCCCCCCNC(N)=O)NCCCc1c[nH]cn1` [compound 136], for which the “Emax hH2R” value at hH2R was 0.45 and 0.45±0.03. Also, on hH3R, the “Emax hH3R” value is −1.20±0.15. On gpH1R (ileum), this molecule had a Kb of 1000 nM. Also, on gpH2R (atrium) [1], the concentration for a half-maximal effect (EC50) is 295 nM and the “Emax gpH2R” value is recorded as 0.96±0.01.

As to `O=C(NC(=S)NCCCc1c[nH]cn1)c1ccccc1` [compound 141, N‐{[3‐(1H‐Imidazol‐4‐yl)propyl]thiocarbamoyl}benzamide], at gpH2R (atrium) [1], a half-maximal effect (EC50) was put at 18600 nM and the “Emax gpH2R” value was 0.43±0.01.

Regarding `NC(=S)NCCCc1c[nH]cn1` [compound 142], at gpH2R (atrium) [1], a half-maximal effect (EC50) was put at 11000 nM and the “Emax gpH2R” value is listed as 0.27±0.02.

Turning to `CSC(=N)NCCCc1c[nH]cn1` [compound 143, N‐[3‐(1H‐Imidazol‐4‐yl)propyl]‐S‐methylisothiourea], on gpH1R (ileum), the Kb was 3890 nM. Also, on gpH2R (atrium) [1], the 50% effective concentration (EC50) was 7410 nM; the “Emax gpH2R” value is 0.45 and 0.45±0.05. Besides, the rel. potency on gpH2R (atrium) [2] (relative to histamine) is 0.1. For the same molecule, at gpH2R (atrium) [2], the maximum response is 0.23.

`O=C(NCCCc1c[nH]cn1)NC(=O)c1ccccc1` [compound 144] showed a Kb on gpH1R (ileum) of 9550 nM. Also, on gpH2R (atrium) [1], the EC50 is 24000 nM and the “Emax gpH2R” value is 0.15±0.03.

`NC(=O)NCCCc1c[nH]cn1` [compound 145, 1‐[3‐(1H‐Imidazol‐4‐yl)propyl]urea] gave a Kb at gpH1R (ileum) greater than 31600 nM. Further, on gpH2R (atrium) [1], a half-maximal effect (EC50) was put at 269000 nM and the “Emax gpH2R” value was 0.58±0.02.

A word on the EC50: it is the concentration at which the effect is half-maximal. The low end stands for a more potent agent, the high end for a less potent agent.
